Calls of active or inactive are those of the source. Cut-off read from the data, not from the text of the source, for most assays here: actives have a measured Kd and inactives only a lower limit.
Experiments:
[1] = target: T1, Activin receptor type-1 (Homo sapiens, UniProt Q04771)
T1 sequence (Q04771 whole entry): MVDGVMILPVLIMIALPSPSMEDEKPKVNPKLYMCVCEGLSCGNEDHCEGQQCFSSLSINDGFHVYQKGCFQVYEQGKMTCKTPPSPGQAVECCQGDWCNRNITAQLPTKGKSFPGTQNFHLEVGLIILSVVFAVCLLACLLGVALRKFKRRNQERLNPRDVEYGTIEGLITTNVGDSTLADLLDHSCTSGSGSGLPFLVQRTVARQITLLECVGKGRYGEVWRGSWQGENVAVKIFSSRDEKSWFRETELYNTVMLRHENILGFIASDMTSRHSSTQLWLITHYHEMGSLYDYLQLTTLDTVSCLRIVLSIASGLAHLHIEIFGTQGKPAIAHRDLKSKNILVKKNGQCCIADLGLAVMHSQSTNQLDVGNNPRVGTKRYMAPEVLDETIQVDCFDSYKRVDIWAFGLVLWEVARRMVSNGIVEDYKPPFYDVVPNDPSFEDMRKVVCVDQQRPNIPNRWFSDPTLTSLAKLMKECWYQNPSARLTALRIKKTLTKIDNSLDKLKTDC

[2] = target: T2, Peroxisomal acyl-coenzyme A oxidase 3 (Homo sapiens, UniProt O15254)
T2 sequence (O15254 whole entry): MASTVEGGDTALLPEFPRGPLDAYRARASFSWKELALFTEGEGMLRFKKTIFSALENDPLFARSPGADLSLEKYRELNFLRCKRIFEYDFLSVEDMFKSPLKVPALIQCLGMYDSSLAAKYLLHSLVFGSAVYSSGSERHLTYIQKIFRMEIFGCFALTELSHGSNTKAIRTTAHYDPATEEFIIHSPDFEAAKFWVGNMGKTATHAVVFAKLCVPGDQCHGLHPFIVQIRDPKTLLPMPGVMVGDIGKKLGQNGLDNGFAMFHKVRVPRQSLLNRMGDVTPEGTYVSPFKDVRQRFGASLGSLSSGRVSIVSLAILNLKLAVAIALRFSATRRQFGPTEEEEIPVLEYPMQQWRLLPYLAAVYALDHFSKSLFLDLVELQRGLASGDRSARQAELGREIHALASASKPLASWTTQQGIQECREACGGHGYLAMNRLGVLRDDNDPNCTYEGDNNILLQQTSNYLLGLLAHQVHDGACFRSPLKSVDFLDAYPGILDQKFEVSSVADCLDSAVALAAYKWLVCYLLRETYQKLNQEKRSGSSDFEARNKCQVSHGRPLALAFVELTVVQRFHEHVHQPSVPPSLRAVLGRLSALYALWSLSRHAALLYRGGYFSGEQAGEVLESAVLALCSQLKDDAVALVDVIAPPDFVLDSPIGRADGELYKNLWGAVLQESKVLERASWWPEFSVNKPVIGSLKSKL

[3] = target: Tyrosine-protein kinase JAK1 (Homo sapiens, UniProt P23458)
[4] = target: RAC-alpha serine/threonine-protein kinase (Homo sapiens, UniProt P31749)
[5] = target: Activated CDC42 kinase 1 (Homo sapiens, UniProt Q07912)
[6] = target: Casein kinase I isoform epsilon (Homo sapiens, UniProt P49674)
[7] = target: Dual specificity testis-specific protein kinase 1 (Homo sapiens, UniProt Q15569)
Note: in the data inactive means no Kd found up to 30 µM.

Sequence of Dual specificity testis-specific protein kinase 1 (Q15569 whole entry): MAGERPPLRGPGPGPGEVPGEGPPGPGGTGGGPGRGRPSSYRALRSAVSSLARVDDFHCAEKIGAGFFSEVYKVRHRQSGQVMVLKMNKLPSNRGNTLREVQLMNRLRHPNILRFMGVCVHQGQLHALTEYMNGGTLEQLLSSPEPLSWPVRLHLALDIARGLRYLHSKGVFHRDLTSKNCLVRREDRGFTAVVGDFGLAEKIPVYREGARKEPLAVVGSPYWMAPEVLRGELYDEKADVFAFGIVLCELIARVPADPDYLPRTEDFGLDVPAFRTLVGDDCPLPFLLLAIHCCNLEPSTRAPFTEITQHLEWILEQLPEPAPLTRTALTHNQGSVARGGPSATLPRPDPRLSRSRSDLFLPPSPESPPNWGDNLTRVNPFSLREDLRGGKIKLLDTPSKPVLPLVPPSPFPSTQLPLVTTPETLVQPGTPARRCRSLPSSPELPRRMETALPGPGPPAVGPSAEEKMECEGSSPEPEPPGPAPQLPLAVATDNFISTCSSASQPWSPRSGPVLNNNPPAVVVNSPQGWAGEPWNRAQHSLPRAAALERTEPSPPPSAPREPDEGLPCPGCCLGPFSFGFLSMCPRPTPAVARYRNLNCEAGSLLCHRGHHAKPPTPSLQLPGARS
Sequence of Casein kinase I isoform epsilon (P49674 whole entry, canonical isoform): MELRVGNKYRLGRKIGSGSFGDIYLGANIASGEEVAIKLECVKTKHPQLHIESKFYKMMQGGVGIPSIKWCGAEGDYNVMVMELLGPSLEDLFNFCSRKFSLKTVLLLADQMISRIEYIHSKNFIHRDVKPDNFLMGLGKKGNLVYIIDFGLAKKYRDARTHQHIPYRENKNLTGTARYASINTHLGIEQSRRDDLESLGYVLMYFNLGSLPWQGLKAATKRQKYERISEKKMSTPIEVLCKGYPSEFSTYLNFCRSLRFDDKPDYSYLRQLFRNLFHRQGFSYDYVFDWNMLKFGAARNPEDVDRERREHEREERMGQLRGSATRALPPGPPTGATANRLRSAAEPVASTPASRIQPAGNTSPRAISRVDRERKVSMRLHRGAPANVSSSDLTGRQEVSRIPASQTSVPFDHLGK
Sequence of RAC-alpha serine/threonine-protein kinase (P31749 whole entry): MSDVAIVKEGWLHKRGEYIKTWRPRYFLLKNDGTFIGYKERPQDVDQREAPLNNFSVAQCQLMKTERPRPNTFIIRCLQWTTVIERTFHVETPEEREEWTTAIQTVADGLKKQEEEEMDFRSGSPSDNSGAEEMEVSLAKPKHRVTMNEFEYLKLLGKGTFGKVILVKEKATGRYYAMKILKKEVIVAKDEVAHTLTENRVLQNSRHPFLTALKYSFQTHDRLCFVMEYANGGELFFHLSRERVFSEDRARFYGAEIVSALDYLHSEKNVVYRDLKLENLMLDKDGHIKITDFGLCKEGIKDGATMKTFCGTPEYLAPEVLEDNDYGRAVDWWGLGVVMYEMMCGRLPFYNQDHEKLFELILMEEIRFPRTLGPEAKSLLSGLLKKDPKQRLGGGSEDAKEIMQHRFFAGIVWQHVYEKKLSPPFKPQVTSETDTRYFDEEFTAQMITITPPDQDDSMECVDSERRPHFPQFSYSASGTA
Sequence of Activated CDC42 kinase 1 (Q07912 whole entry, canonical isoform): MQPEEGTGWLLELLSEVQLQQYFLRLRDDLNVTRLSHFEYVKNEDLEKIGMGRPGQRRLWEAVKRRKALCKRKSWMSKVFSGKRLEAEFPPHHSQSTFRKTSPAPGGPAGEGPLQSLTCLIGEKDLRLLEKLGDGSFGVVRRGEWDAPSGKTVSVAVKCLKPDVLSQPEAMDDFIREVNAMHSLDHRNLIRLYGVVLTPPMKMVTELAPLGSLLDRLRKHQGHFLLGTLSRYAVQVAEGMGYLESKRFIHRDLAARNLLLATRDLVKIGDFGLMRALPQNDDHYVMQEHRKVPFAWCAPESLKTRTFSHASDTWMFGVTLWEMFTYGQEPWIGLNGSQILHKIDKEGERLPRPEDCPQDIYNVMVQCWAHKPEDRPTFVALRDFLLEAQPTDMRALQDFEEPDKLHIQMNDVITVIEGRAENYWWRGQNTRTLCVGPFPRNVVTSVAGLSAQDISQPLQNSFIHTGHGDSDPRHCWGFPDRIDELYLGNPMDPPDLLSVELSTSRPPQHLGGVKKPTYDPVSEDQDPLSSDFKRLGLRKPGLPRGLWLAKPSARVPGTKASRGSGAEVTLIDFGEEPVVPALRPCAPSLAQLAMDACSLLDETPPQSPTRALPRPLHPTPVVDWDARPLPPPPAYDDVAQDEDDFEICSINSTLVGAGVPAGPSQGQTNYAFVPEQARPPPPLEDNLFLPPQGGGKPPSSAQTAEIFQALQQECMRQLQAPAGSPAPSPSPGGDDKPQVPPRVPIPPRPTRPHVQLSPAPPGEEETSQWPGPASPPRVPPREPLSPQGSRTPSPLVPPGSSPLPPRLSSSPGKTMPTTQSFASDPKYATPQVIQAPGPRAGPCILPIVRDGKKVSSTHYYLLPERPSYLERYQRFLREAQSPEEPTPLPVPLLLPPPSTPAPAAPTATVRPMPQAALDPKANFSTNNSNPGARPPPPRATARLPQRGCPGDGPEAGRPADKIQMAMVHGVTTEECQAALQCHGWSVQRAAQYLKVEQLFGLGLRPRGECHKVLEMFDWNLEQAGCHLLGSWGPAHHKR
Sequence of Tyrosine-protein kinase JAK1 (P23458 whole entry): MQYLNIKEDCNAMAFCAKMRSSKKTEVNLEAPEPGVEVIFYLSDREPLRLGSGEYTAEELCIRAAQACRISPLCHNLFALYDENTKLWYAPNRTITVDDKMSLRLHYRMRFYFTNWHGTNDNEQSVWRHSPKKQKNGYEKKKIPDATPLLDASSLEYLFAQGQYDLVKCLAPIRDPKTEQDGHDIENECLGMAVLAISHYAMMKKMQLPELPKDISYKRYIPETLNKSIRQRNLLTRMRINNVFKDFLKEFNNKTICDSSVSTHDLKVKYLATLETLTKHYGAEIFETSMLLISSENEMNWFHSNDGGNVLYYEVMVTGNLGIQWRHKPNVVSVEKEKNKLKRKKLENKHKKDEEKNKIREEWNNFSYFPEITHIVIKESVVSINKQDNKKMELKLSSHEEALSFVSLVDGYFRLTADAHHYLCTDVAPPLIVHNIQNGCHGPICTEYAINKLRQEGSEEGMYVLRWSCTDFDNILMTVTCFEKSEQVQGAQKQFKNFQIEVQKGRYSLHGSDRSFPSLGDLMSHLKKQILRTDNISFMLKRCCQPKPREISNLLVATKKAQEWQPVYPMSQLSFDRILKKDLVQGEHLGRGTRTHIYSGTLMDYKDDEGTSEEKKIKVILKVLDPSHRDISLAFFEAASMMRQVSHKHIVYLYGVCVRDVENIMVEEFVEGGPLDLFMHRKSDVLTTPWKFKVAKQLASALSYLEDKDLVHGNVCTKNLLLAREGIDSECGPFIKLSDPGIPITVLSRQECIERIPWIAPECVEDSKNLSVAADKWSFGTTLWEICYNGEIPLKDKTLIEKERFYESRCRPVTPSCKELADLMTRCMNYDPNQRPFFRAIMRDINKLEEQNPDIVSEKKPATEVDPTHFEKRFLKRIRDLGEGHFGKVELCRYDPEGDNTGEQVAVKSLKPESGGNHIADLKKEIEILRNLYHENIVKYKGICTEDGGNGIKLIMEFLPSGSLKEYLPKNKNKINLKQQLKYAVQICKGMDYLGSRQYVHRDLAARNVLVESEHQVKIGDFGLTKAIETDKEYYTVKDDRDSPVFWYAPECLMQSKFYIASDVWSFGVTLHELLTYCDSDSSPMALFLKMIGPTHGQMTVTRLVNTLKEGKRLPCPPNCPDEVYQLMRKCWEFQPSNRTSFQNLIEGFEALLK

Compound | Kd [1] | Kd [2] | Kd [3] | Kd [4] | Kd [5] | Kd [6] | Kd [7]
C[C@@H](Oc1cc(C(=O)Nc2ccc(C(=O)N3CCN(C)CC3)cc2)nnc1N)c1c(Cl)ccc(F)c1Cl | > 30 µM (inactive) | > 30 µM (inactive) | > 30 µM (inactive) | > 30 µM (inactive) | > 30 µM (inactive) | > 30 µM (inactive) | 
CCNC(=O)C#Cc1ccc2c(c1)NC(=O)/C2=C(\Nc1ccc(CN(C)C)cc1)c1ccccc1 | > 30 µM (inactive) | > 30 µM (inactive) | > 30 µM (inactive) | > 30 µM (inactive) | 1.55 µM (active) | > 30 µM (inactive) | > 30 µM (inactive)
COCc1c(-c2ccc(NC(=O)Nc3cc(C(F)(F)F)ccc3F)c(F)c2)c2c(N)ncnn2c1CN1CCOCC1 | > 30 µM (inactive) | > 30 µM (inactive) | > 30 µM (inactive) | > 30 µM (inactive) | > 30 µM (inactive) | > 30 µM (inactive) | > 30 µM (inactive)
Nc1ncnc2c1c(-c1cccc(OCc3ccccc3)c1)cn2[C@H]1C[C@@H](CN2CCC2)C1 [AEW-541] | 1.2 µM (active) | > 30 µM (inactive) | > 30 µM (inactive) | > 30 µM (inactive) | > 30 µM (inactive) | 60.5 µM (active) | 
COc1cc([C@@H]2c3cc4c(cc3[C@H](O)[C@H]3COC(=O)[C@@H]23)OCO4)cc(OC)c1OC [AXL-1717] | > 30 µM (inactive) | > 30 µM (inactive) | > 30 µM (inactive) | > 30 µM (inactive) | > 30 µM (inactive) | > 30 µM (inactive) | > 30 µM (inactive)
NC(=O)Nc1cc(-c2cccc(F)c2)sc1C(=O)N[C@H]1CCCNC1 [AZD-7762] | > 30 µM (inactive) | > 30 µM (inactive) | > 30 µM (inactive) | > 30 µM (inactive) | 1.09 µM (active) | > 30 µM (inactive) | > 30 µM (inactive)
Cc1cc(Nc2ncc(Cl)c(Nc3ccccc3S(=O)(=O)C(C)C)n2)c(OC(C)C)cc1C1CCNCC1 [CERITINIB] | > 30 µM (inactive) | > 30 µM (inactive) | > 30 µM (inactive) | > 30 µM (inactive) | 0.929 µM (active) | > 30 µM (inactive) | > 30 µM (inactive)
C#Cc1cccc(Nc2ncnc3cc(OC)c(OCCCCCCC(=O)NO)cc23)c1 [CUDC-101] | > 30 µM (inactive) | > 30 µM (inactive) | > 30 µM (inactive) | > 30 µM (inactive) | > 30 µM (inactive) | > 30 µM (inactive) | > 30 µM (inactive)
Cn1cc(C2=C(c3cn(C4CCN(Cc5ccccn5)CC4)c4ccccc34)C(=O)NC2=O)c2ccccc21 [ENZASTAURIN] |  | > 30 µM (inactive) |  |  |  |  | 
Cc1cccc(-c2nn3c(c2-c2ccnc4ccc(C(N)=O)cc24)CCC3)n1 [GALUNISERTIB] | > 30 µM (inactive) | > 30 µM (inactive) | > 30 µM (inactive) | > 30 µM (inactive) | > 30 µM (inactive) | 7.9 µM (active) | > 30 µM (inactive)
CCn1cc(-c2ccnc3[nH]c(-c4cccc(CN(C)C)c4)cc23)c(-c2ccc(NC(=O)N(C)C)cc2)n1 [GSK-1070916] |  | > 30 µM (inactive) | > 30 µM (inactive) | > 30 µM (inactive) | > 30 µM (inactive) | > 30 µM (inactive) | 
CNC(=O)c1nn(C)c2c1C(C)(C)Cc1cnc(Nc3ccc(N4CCN(C)CC4)cc3)nc1-2 [MILCICLIB] | 0.477 µM (active) | > 30 µM (inactive) | > 30 µM (inactive) | > 30 µM (inactive) | 0.9 µM (active) |  | > 30 µM (inactive)
NC1(c2ccc(-c3nc4ccn5c(=O)[nH]nc5c4cc3-c3ccccc3)cc2)CCC1 [MK-2206] | > 30 µM (inactive) | > 30 µM (inactive) | > 30 µM (inactive) |  | > 30 µM (inactive) | > 30 µM (inactive) | > 30 µM (inactive)
CN(C[C@@H]1COCCO1)S(=O)(=O)Nc1ccc2ccc3ncc(-c4cnn(C)c4)cc3c(=O)c2c1 [MK-2461] | > 30 µM (inactive) | > 30 µM (inactive) | > 30 µM (inactive) | > 30 µM (inactive) | > 30 µM (inactive) | > 30 µM (inactive) | > 30 µM (inactive)
FC(F)(F)c1ccc(/C=C/c2nc(COc3ccc(CCCCn4ccnn4)cc3)co2)cc1 [MUBRITINIB] | > 30 µM (inactive) | > 30 µM (inactive) | > 30 µM (inactive) | > 30 µM (inactive) | > 30 µM (inactive) | > 30 µM (inactive) | > 30 µM (inactive)
CCOc1cc2ncc(C#N)c(Nc3ccc(F)c(Cl)c3)c2cc1NC(=O)/C=C/CN(C)C [PELITINIB] | > 30 µM (inactive) | > 30 µM (inactive) | > 30 µM (inactive) | > 30 µM (inactive) | > 30 µM (inactive) | 1.48 µM (active) | > 30 µM (inactive)
CC(=O)NCC(=O)N1[C@@H]2CC[C@H]1c1ccc(Nc3ncc(C(F)(F)F)c(NC4CCC4)n3)cc12 [PF-03814735] |  | > 30 µM (inactive) |  |  |  |  | > 30 µM (inactive)
CO[C@H]1C[C@@H]2CC[C@@H](C)[C@@](O)(O2)C(=O)C(=O)N2CCCC[C@H]2C(=O)O[C@H]([C@H](C)C[C@@H]2CC[C@@H](OP(C)(C)=O)[C@H](OC)C2)CC(=O)[C@H](C)/C=C(\C)[C@@H](O)[C@@H](OC)C(=O)[C@H](C)C[C@H](C)/C=C/C=C/C=C/1C [RIDAFOROLIMUS] | > 30 µM (inactive) | > 30 µM (inactive) | > 30 µM (inactive) | > 30 µM (inactive) | > 30 µM (inactive) | > 30 µM (inactive) | > 30 µM (inactive)
CN1CCN(CCOc2cc(OC3CCOCC3)c3c(Nc4c(Cl)ccc5c4OCO5)ncnc3c2)CC1 [SARACATINIB] | 0.004 µM (active) | > 30 µM (inactive) | > 30 µM (inactive) | > 30 µM (inactive) | 4.65 µM (active) | > 30 µM (inactive) | > 30 µM (inactive)
COc1cc2c(Nc3ccc(Cl)c(Cl)c3F)ncnc2cc1OC[C@@H]1C[C@@H]2CN(C)C[C@@H]2C1 [TESEVATINIB] | > 30 µM (inactive) | > 30 µM (inactive) | > 30 µM (inactive) | > 30 µM (inactive) | > 30 µM (inactive) | 1.02 µM | > 30 µM (inactive)
C[C@@H](NC(=O)c1ncnc(N)c1Cl)c1ncc(C(=O)Nc2cc(C(F)(F)F)c(Cl)cn2)s1 [TOVORAFENIB] | > 30 µM (inactive) | > 30 µM (inactive) | > 30 µM (inactive) | > 30 µM (inactive) | > 30 µM (inactive) | > 30 µM (inactive) | > 30 µM (inactive)
Cn1ncc(Cl)c1-c1cc(C(=O)N[C@H](CN)Cc2ccc(F)c(F)c2)oc1Cl [UPROSERTIB] | > 30 µM (inactive) | > 30 µM (inactive) | > 30 µM (inactive) |  | > 30 µM (inactive) | > 30 µM (inactive) | 

— ChEMBL document CHEMBL3991601, “The target landscape of clinical kinase drugs” (Science, 2017)
